The results in this text go back to patent US9598423B2 (BRISTOL-MYERS SQUIBB COMPANY, priority 2013, dated 2017).

Experiment [1] deals with CK1ε (Homo sapiens (Human), UniProt P49674). The experiment can be described thus: CK1ε kinase assay (Caliper LABCHIP electrophoretic separation of fluoresceinated peptide substrate and product). Format: biochemical. To be noted: read-out: CK1ε (IC50). In outline:
(§1)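 Compounds, taken from 10 mM DMSO stocks, are titrated at eleven concentrations. Kinase reactions proceed for 22 hours at room temperature and are quenched with EDTA. Substrate and product are resolved electrophoretically, and IC50 values are fitted by non-linear regression.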

Experiment [2] concerns the target CK1δ (Homo sapiens (Human), UniProt P48730). The experiment is described as follows: CK1δ kinase assay (Caliper LABCHIP electrophoretic separation of fluoresceinated peptide substrate and product). The class given is biochemical. The gist of the method: as §1
Setting [3] is: 200 pM CK1ε, 50 μM ATP, 1.5 μM peptide substrate, 22 hours at room temperature.
Setting [4] is: 200 pM CK1δ, 50 μM ATP, 1.5 μM peptide substrate, 22 hours at room temperature, read-out: CK1δ (IC50).

Where two headings read alike, the source gives them in different places.

Chain of CK1ε (P49674 whole entry): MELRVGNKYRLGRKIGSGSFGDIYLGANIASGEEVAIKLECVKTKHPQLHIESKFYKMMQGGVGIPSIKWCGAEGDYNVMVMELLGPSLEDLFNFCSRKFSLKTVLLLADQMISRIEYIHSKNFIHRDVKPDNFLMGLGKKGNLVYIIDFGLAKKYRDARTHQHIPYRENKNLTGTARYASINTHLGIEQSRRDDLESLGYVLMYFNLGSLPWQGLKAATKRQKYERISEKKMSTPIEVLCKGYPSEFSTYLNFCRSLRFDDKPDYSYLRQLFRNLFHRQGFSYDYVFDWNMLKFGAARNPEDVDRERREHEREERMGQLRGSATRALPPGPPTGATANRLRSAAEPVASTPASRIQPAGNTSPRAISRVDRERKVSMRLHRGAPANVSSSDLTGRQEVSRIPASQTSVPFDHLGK
Chain of CK1δ (P48730 whole entry): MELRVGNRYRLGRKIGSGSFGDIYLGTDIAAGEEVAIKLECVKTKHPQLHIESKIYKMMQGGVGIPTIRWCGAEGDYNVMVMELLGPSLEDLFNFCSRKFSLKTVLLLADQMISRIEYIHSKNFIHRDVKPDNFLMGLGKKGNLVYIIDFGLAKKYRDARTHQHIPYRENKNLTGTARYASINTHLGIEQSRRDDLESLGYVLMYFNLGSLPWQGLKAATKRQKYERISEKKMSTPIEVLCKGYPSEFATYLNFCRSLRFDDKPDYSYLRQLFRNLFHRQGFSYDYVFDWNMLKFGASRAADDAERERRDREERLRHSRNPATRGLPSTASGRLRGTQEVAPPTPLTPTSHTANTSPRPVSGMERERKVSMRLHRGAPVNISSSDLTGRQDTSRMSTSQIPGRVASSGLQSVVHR

The term IC50 denotes the concentration needed to halve the response being measured. As for `NC(=O)c1c(-c2cc(F)cc(Cl)c2)nn2c1CN(C(=O)Nc1cc(Cl)cc(Cl)c1)CC2` [Compound 216, 2-(3-Chloro-5-fluorophenyl)-N^5-(3,5-dichlorophenyl)-6,7-dihydropyrazolo[1,5-a] pyrazine-3,5(4H)-dicarboxamide], the IC50 in experiment [1] (setting [3]) and in experiment [2] (setting [4]) was 0.01 to 10 nM each time.
In the case of `Cc1ccc(-c2nn3c(c2C(N)=O)CN(C(=O)Nc2ccc(C#N)c(C(F)(F)F)c2)CC3)cc1Cl` [Compound 253, 2-(3-Chloro-4-methylphenyl)-N^5-(4-cyano-3-(trifluoro-methyl)phenyl)-6,7-dihydropyrazolo [1,5-a]pyrazine-3,5(4H)-dicarboxamide], the IC50 in experiment [1] and in experiment [2] (setting [4]) was 0.01 to 10 nM in each case.
Turning to `N#Cc1ccc(NC(=O)N2Cc3c(C(N)=O)c(-c4ccc(F)c(Cl)c4)nn3CC23CC3)cc1C(F)(F)F` [Compound 345, 2′-(3-Chloro-4-fluorophenyl)-N^5′-(4-cyano-3-(trifluoromethyl)phenyl)-4′H-spiro[cyclopropane-1,6′-pyrazolo[1,5-a]pyrazine]-3′,5′(7′H)-dicarboxamide], the IC50 in experiment [1] (setting [3]) lay within 10 to 100 nM; in experiment [2] (CK1δ (IC50, nM)), 10 to 100 nM.
Consider `NC(=O)c1c(-c2cccc(F)c2)nn2c1CN(C(=O)Nc1ccc(Cl)cc1)CC2` [Compound 10, N^5-(4-Chlorophenyl)-2-(3-fluorophenyl)-6,7-dihydropyrazolo[1,5-a]pyrazine-3,5(4H)-dicarboxamide], for which the IC50 in experiment [1] (setting [3]) and in experiment [2] (setting [4]) was 0.01 to 10 nM in each case.
Take `CC(C)(C)NC(=O)N1CCn2nc(-c3cnc4ccccc4c3)c(C(N)=O)c2C1` [Compound 119, N^5-(tert-Butyl)-2-(quinolin-3-yl)-6,7-dihydropyrazolo[1,5-a]pyrazine-3,5(4H)-dicarboxamide]: the IC50 in experiment [1] (setting [3]) and in experiment [2] (setting [4]) was 0.01 to 10 nM in each case.
For the compound `NC(=O)c1c(-c2ccc(F)c(Cl)c2)nn2c1CN(C(=O)Nc1cccc(F)c1F)CC2` [Compound 191, 2-(3-Chloro-4-fluorophenyl)-N^5-(2,3-difluorophenyl)-6,7-dihydropyrazolo[1,5-a] pyrazine-3,5(4H)-dicarboxamide], the IC50 in experiment [1] (setting [3]) and in experiment [2] (setting [4]) was 0.01 to 10 nM each time.
For `NC(=O)c1c(-c2cccc(F)c2)nn2c1CN(C(=O)NC13CC4CC(CC(C4)C1)C3)CC2` [Compound 22, N^5-(Adamantan-1-yl)-2-(3-fluorophenyl)-6,7-dihydropyrazolo[1,5-a]pyrazine-3,5(4H)-dicarboxamide], the IC50 in experiment [1] (setting [3]) and in experiment [2] (setting [4]) was 0.01 to 10 nM in each case.
Consider `N#Cc1ccc(NC(=O)N2CCn3nc(-c4ccc(F)c(F)c4)c(C(N)=O)c3C2)cc1` [Compound 291, N^5-(4-Cyanophenyl)-2-(3,4-difluorophenyl)-6,7-dihydropyrazolo[1,5-a] pyrazine-3,5(4H)-dicarboxamide], for which the half-maximal inhibitory concentration (IC50) in experiment [1] (setting [3]) and in experiment [2] (setting [4]) was 0.01 to 10 nM in each case.
Consider `COc1cc(F)cc(-c2nn3c(c2C(N)=O)CN(C(=O)Nc2ccc(C#N)cc2)CC3)c1` [Compound 285, N^5-(4-Cyanophenyl)-2-(3-fluoro-5-methoxyphenyl)-6,7-dihydropyrazolo[1,5-a] pyrazine-3,5(4H)-dicarboxamide], for which the concentration for half-maximal inhibition (IC50) in experiment [1] (setting [3]) and in experiment [2] (setting [4]) was 0.01 to 10 nM each time.
As for `CS(=O)(=O)c1ccc(-c2nn3c(c2C(N)=O)CN(C(=O)Nc2ccc(C#N)cc2)CC3)cc1` [Compound 290, N^5-(4-Cyanophenyl)-2-(4-(methylsulfonyl)phenyl)-6,7-dihydropyrazolo[1,5-a] pyrazine-3,5(4H)-dicarboxamide], the IC50 in experiment [1] (setting [3]) and in experiment [2] (setting [4]) was 100 to 2000 nM each time.
For `NC(=O)c1c(-c2cccc(Cl)c2)nn2c1CN(C(=O)Nc1ccc(Cl)c(Cl)c1)CC2` [Compound 164, 2-(3-Chlorophenyl)-N^5-(3,4-dichlorophenyl)-6,7-dihydropyrazolo[1,5-a] pyrazine-3,5(4H)-dicarboxamide], the concentration for half-maximal inhibition (IC50) in experiment [1] (setting [3]) and in experiment [2] (setting [4]) was 0.01 to 10 nM throughout.
Consider `COc1cc(NC(=O)N2CCn3nc(-c4cccc(F)c4)c(C(N)=O)c3C2)ccc1C(F)(F)F` [Compound 78, 2-(3-Fluorophenyl)-N^5-(3-methoxy-4-(trifluoromethyl)phenyl)-6,7-dihydropyrazolo[1,5-a]pyrazine-3,5(4H)-dicarboxamide], for which the IC50 in experiment [1] (setting [3]) and in experiment [2] (setting [4]) was 0.01 to 10 nM throughout.
With `Cc1cc(Cl)cc(-c2nn3c(c2C(N)=O)CN(C(=O)Nc2ccc(C#N)cc2)CC3)c1` [Compound A62, 2-(3-Chloro-5-methylphenyl)-N^5-(4-cyanophenyl)-6,7-dihydropyrazolo[1,5-a]pyrazine-3,5(4H)-dicarboxamide], the IC50 in experiment [1] (setting [3]) and in experiment [2] (setting [4]) was 0.01 to 10 nM in each case.
`N#Cc1ccc(NC(=O)N2Cc3c(C(N)=O)c(-c4ccc(F)c(Cl)c4)nn3C3(C2)CC(F)(F)C3)cc1` [Compound A36, 2′-(3-Chloro-4-fluorophenyl)-N^5′-(4-cyanophenyl)-3,3-difluoro-4′H-spiro[cyclobutane-1,7′-pyrazolo[1,5-a]pyrazine]-3′,5′(6′H)-dicarboxamide]: the IC50 in experiment [1] (setting [3]) and in experiment [2] (setting [4]) was 0.01 to 10 nM in each case.
Take `N#Cc1ccc(NC(=O)N2CCn3nc(-c4cc(F)c5cn[nH]c5c4)c(C(N)=O)c3C2)cc1F` [Compound 324, N^5-(4-Cyano-3-fluorophenyl)-2-(4-fluoro-1H-indazol-6-yl)-6,7-dihydropyrazolo[1,5-a]pyrazine-3,5(4H)-dicarboxamide]: the IC50 in experiment [1] (setting [3]) and in experiment [2] (setting [4]) was 0.01 to 10 nM throughout.
As to `N#Cc1ccc(NC(=O)N2CCn3nc(-c4cc(Cl)cc(Cl)c4)c(C(N)=O)c3C2)cc1` [Compound 273, N^5-(4-Cyanophenyl)-2-(3,5-dichlorophenyl)-6,7-dihydropyrazolo[1,5-a] pyrazine-3,5(4H)-dicarboxamide], the IC50 in experiment [1] (setting [3]) and in experiment [2] (setting [4]) was 0.01 to 10 nM in each case.
On to `NC(=O)c1c(-c2cccc(F)c2)nn2c1CN(C(=O)Nc1ccc(F)c(Cl)c1)CC2` [Compound 60, N^5-(3-Chloro-4-fluorophenyl)-2-(3-fluorophenyl)-6,7-dihydropyrazolo[1,5-a]pyrazine-3,5(4H)-dicarboxamide], for which the IC50 in experiment [1] (setting [3]) and in experiment [2] (setting [4]) was 0.01 to 10 nM each time.
Turning to `N#Cc1ccc(NC(=O)N2Cc3c(C(N)=O)c(-c4ccc(F)c(Cl)c4)nn3C(C(=O)NC3CCOCC3)C2)cc1` (single isomer, unassigned) [Compound A28, 2-(3-Chloro-4-fluorophenyl)-N^5-(4-cyanophenyl)-N^7-(tetrahydro-2H-pyran-4-yl)-6,7-dihydropyrazolo[1,5-a]pyrazine-3,5,7(4H)-tricarboxamide], the IC50 in experiment [1] (setting [3]) and in experiment [2] (setting [4]) was 10 to 100 nM each time.
For `CC(C)(C)c1cc(NC(=O)N2CCn3nc(-c4ccc(F)c(Cl)c4)c(C(N)=O)c3C2)ccc1C#N` [Compound A51, N^5-(3-(tert-Butyl)-4-cyanophenyl)-2-(3-chloro-4-fluorophenyl)-6,7-dihydropyrazolo[1,5-a]pyrazine-3,5(4H)-dicarboxamide], the half-inhibitory concentration (IC50) in experiment [1] (setting [3]) and in experiment [2] (setting [4]) was 0.01 to 10 nM in each case.
Consider `CC1Cn2nc(-c3ccc(Cl)c(Cl)c3)c(C(N)=O)c2CN1C(=O)Nc1ccc(C#N)cc1` (single isomer, unassigned) [Compound 334, N^5-(4-Cyanophenyl)-2-(3,4-dichlorophenyl)-6-methyl-6,7-dihydropyrazolo[1,5-a]pyrazine-3,5(4H)-dicarboxamide], for which the 50% inhibitory concentration (IC50) in experiment [1] (setting [3]) and in experiment [2] (setting [4]) was 0.01 to 10 nM each time.
Take `NC(=O)c1c(-c2cccc(Cl)c2)nn2c1CN(C(=O)Nc1ccc(F)c(F)c1)CC2` [Compound 156, 2-(3-Chlorophenyl)-N^5-(3,4-difluorophenyl)-6,7-dihydropyrazolo[1,5-a]pyrazine-3,5(4H)-dicarboxamide]: the IC50 in experiment [1] (setting [3]) and in experiment [2] (setting [4]) was 0.01 to 10 nM throughout.
Take `Cc1cc(NC(=O)N2CCn3nc(-c4ccc(F)c(Cl)c4)c(C(N)=O)c3C2)ccc1C#N` [Compound A48, 2-(3-Chloro-4-fluorophenyl)-N^5-(4-cyano-3-methylphenyl)-6,7-dihydropyrazolo[1,5-a]pyrazine-3,5(4H)-dicarboxamide]: the half-maximal inhibitory concentration (IC50) in experiment [1] (setting [3]) and in experiment [2] (setting [4]) was 0.01 to 10 nM throughout.
Regarding `N#Cc1cccc(NC(=O)N2CCn3nc(-c4ccc(F)c(Cl)c4)c(C(N)=O)c3C2)c1` [Compound 200, 2-(3-Chloro-4-fluorophenyl)-N^5-(3-cyanophenyl)-6,7-dihydropyrazolo[1,5-a] pyrazine-3,5(4H)-dicarboxamide], the concentration for half-maximal inhibition (IC50) in experiment [1] (setting [3]) and in experiment [2] (setting [4]) was 0.01 to 10 nM throughout.
With `NC(=O)c1c(-c2cccc(F)c2)nn2c1CN(C(=O)NCc1ccc(Cl)cc1Cl)CC2` [Compound 45, N^5-(2,4-Dichlorobenzyl)-2-(3-fluorophenyl)-6,7-dihydropyrazolo[1,5-a]pyrazine-3,5(4H)-dicarboxamide], the half-maximal inhibitory concentration (IC50) in experiment [1] (setting [3]) and in experiment [2] (setting [4]) was 0.01 to 10 nM throughout.
Take `CC1Cn2nc(-c3ccc(F)c(Cl)c3)c(C(N)=O)c2CN1C(=O)Nc1ccc(C#N)cc1` (single isomer, unassigned) [Compound 329, 2-(3-Chloro-4-fluorophenyl)-N^5-(4-cyanophenyl)-6-methyl-6,7-dihydropyrazolo[1,5-a]pyrazine-3,5(4H)-dicarboxamide]: the half-inhibitory concentration (IC50) in experiment [1] (setting [3]) and in experiment [2] (setting [4]) was 0.01 to 10 nM in each case.
On to `CC(=O)Nc1cccc(-c2nn3c(c2C(N)=O)CN(C(=O)Nc2ccc(C#N)cc2)CC3)c1` [Compound 288, 2-(3-Acetamidophenyl)-N^5-(4-cyanophenyl)-6,7-dihydropyrazolo[1,5-a] pyrazine-3,5(4H)-dicarboxamide], for which the IC50 in experiment [1] (setting [3]) and in experiment [2] (setting [4]) was 100 to 2000 nM throughout.
For `NC(=O)c1c(-c2cncc(Cl)c2)nn2c1CN(C(=O)Nc1ccc(Cl)c(Cl)c1)CC2` [Compound 299, 2-(5-Chloropyridin-3-yl)-N^5-(3,4-dichlorophenyl)-6,7-dihydropyrazolo[1,5-a]pyrazine-3,5(4H)-dicarboxamide], the IC50 in experiment [1] (setting [3]) and in experiment [2] (setting [4]) was 0.01 to 10 nM throughout.
